# Assay results taken from patent publication US11591336B2 (Relay Therapeutics, Inc., priority 2017, dated 2023).
# Counter-ions that a name gives are not always drawn.
# Biological target: SHP2 (Homo sapiens (Human), UniProt Q06124)
# Experiment: SHP2 Allosteric Inhibition Assay (DiFMUP prompt fluorescence)
# Assay type: biochemical
# Conditions: 0.25 nM SHP2 activated with 0.5 μM peptide IRS1_pY1172(dPEG8)pY1222; substrate DiFMUP 100 μM; 25° C.
# Sequence of SHP2 (Q06124 whole entry): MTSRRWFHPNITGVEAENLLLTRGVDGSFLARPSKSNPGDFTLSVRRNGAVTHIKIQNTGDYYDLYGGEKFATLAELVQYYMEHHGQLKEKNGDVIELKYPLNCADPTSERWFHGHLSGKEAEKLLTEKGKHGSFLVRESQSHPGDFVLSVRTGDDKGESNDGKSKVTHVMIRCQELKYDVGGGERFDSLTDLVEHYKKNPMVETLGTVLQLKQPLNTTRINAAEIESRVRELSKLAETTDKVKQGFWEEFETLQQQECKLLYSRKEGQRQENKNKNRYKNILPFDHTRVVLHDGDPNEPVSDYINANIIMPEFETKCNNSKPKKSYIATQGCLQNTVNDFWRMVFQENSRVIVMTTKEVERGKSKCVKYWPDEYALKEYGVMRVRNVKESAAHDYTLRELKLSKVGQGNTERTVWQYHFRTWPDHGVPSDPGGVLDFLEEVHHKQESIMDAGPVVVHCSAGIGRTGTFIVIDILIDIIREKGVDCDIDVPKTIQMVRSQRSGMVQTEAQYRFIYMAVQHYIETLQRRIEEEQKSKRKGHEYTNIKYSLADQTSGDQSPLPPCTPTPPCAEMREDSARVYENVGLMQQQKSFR
row,SMILES,IC50
1,"CNC(=O)c1nccc2c1CCCN2c1n[nH]c2nc(N3CCC4(CC3)CO[C@@H](C)[C@H]4N)cnc12 [Compound 404, 1-{6-[(3S,4S)-4-amino-3-methyl-2-oxa-8-azaspiro[4.5]decan-8-yl]-1H-pyrazolo[3,4-b]pyrazin-3-yl}-N-methyl-1,2,3,4-tetrahydro-1,6-naphthyridine-5-carboxamide]",< 1000 nM
2,CCN1CCN(c2n[nH]c3nc(N4CCC5(CC4)CO[C@@H](C)[C@H]5N)cnc23)c2ccc(C#N)cc21 [Compound 405],< 1000 nM
3,COCCN1CCN(c2n[nH]c3nc(N4CCC5(CC4)CO[C@@H](C)[C@H]5N)cnc23)c2ccc(C#N)cc21 [Compound 406],< 1000 nM
4,Cc1nnc(-c2ccc3c(n2)CCCN3c2n[nH]c3nc(N4CCC5(CC4)CO[C@@H](C)[C@H]5N)cnc23)s1 [Compound 407],< 1000 nM
5,C[C@@H]1OCC2(CCN(c3cnc4c(N5CCN(CCS(C)(=O)=O)c6cc(C#N)ccc65)n[nH]c4n3)CC2)[C@@H]1N [Compound 408],< 1000 nM
6,CC(C)N1CCN(c2n[nH]c3nc(N4CCC5(CC4)CO[C@@H](C)[C@H]5N)cnc23)c2ccc(C#N)cc21 [Compound 409],< 1000 nM
7,C#Cc1ccc2c(n1)CCCN2c1n[nH]c2nc(N3CCC4(CC3)CO[C@@H](C)[C@H]4N)cnc12 [Compound 410],< 1000 nM
8,C[C@@H]1OCC2(CCN(c3cnc4c(N5CCN([C@H]6C[C@H](O)C6)c6cc(C#N)ccc65)n[nH]c4n3)CC2)[C@@H]1N [Compound 411],< 1000 nM
9,C[C@@H]1OCC2(CCN(c3cnc4c(N5CCN([C@H]6C[C@@H](O)C6)c6cc(C#N)ccc65)n[nH]c4n3)CC2)[C@@H]1N [Compound 412],< 1000 nM
10,C[C@@H]1OCC2(CCN(c3cnc4c(N5CCN(C)c6nnccc65)n[nH]c4n3)CC2)[C@@H]1N [Compound 413],< 1000 nM
11,C[C@@H]1OCC2(CCN(c3cnc4c(N5CCN(C)c6cnncc65)n[nH]c4n3)CC2)[C@@H]1N [Compound 414],1000 to 10000 nM
12,C[C@@H]1OCC2(CCN(c3cnc4c(N5CCN(C)c6cc(-c7nccs7)ccc65)n[nH]c4n3)CC2)[C@@H]1N [Compound 415],< 1000 nM
13,C[C@@H]1OCC2(CCN(c3cnc4c(N5CCCc6c5ccnc6S(C)(=O)=O)n[nH]c4n3)CC2)[C@@H]1N [Compound 416],< 1000 nM
14,C[C@@H]1OCC2(CCN(c3cnc4c(N5CCCc6c(N=S(C)(C)=O)cccc65)n[nH]c4n3)CC2)[C@@H]1N [Compound 418],< 1000 nM
15,CN=[S@](C)(=O)c1cccc2c1CCCN2c1n[nH]c2nc(N3CCC4(CC3)CO[C@@H](C)[C@H]4N)cnc12 [Compound 419],< 1000 nM
16,CN=[S@@](C)(=O)c1cccc2c1CCCN2c1n[nH]c2nc(N3CCC4(CC3)CO[C@@H](C)[C@H]4N)cnc12 [Compound 420],< 1000 nM
17,C[C@@H]1OCC2(CCN(c3cnc4c(N5CCCc6c5cccc6[S@@](C)(=N)=O)n[nH]c4n3)CC2)[C@@H]1N [Compound 421],< 1000 nM
18,C[C@@H]1OCC2(CCN(c3cnc4c(N5CCCc6c5cccc6[S@](C)(=N)=O)n[nH]c4n3)CC2)[C@@H]1N [Compound 422],< 1000 nM
19,"C[C@@H]1OCC2(CCN(c3cnc4c(N5CCN(CC(=O)O)c6cc(C#N)ccc65)n[nH]c4n3)CC2)[C@@H]1N [Compound 423, 2-(4-{6-[(3S,4S)-4-amino-3-methyl-2-oxa-8-azaspiro[4.5]decan-8-yl]-1H-pyrazolo[3,4-b]pyrazin-3-yl}-7-cyano-1,2,3,4-tetrahydroquinoxalin-1-yl)acetic acid]",< 1000 nM
20,C[C@@H]1OCC2(CCN(c3cnc4c(N5CCCc6c5ccnc6-c5nccs5)n[nH]c4n3)CC2)[C@@H]1N [Compound 424],< 1000 nM
21,"CNC(=O)Cc1ccc2c(n1)CCCN2c1n[nH]c2nc(N3CCC4(CC3)CO[C@@H](C)[C@H]4N)cnc12 [Compound 425, 2-(5-{6-[(3S,4S)-4-amino-3-methyl-2-oxa-8-azaspiro[4.5]decan-8-yl]-1H-pyrazolo[3,4-b]pyrazin-3-yl}-5,6,7,8-tetrahydro-1,5-naphthyridin-2-yl)-N-methylacetamide]",< 1000 nM

row,SMILES,IC50
1,"CO/N=C/c1ccc2c(c1)[C@@H](C)CCN2c1n[nH]c2nc(N3CCC4(CC3)CO[C@@H](C)[C@H]4N)cnc12 [Compound 426, (3S,4S)-8-{3-[(4S)-6-[(1E)-(methoxyimino)methyl]-4-methyl-1,2,3,4-tetrahydroquinolin-1-yl]-1H-pyrazolo[3,4-b]pyrazin-6-yl}-3-methyl-2-oxa-8-azaspiro[4.5]decan-4-amine]",< 1000 nM
2,"C[C@@H]1OCC2(CCN(c3cnc4c(N5CCCc6nc(C7=CCNCC7)ccc65)n[nH]c4n3)CC2)[C@@H]1N [Compound 427, (3S,4S)-3-methyl-8-{3-[6-(1,2,3,6-tetrahydropyridin-4-yl)-1,2,3,4-tetrahydro-1,5-naphthyridin-1-yl]-1H-pyrazolo[3,4-b]pyrazin-6-yl}-2-oxa-8-azaspiro[4.5]decan-4-amine hydrochloride]",< 1000 nM
3,"Cc1nnc(-c2c(Cl)ccc3c2CCCN3c2n[nH]c3nc(N4CCC5(CC4)CO[C@@H](C)[C@H]5N)cnc23)o1 [Compound 429, (3S,4S)-8-{3-[6-chloro-5-(5-methyl-1,3,4-oxadiazol-2-yl)-1,2,3,4-tetrahydroquinolin-1-yl]-1H-pyrazolo[3,4-b]pyrazin-6-yl}-3-methyl-2-oxa-8-azaspiro[4.5]decan-4-amine]",< 1000 nM
4,"C[C@@H]1OCC2(CCN(c3cnc4c(N5CC[C@H](C)c6nc(-c7ccn[nH]7)ccc65)n[nH]c4n3)CC2)[C@@H]1N [Compound 430, (3S,4S)-3-methyl-8-{3-[(4S)-4-methyl-6-(1H-pyrazol-5-yl)-1,2,3,4-tetrahydro-1,5-naphthyridin-1-yl]-1H-pyrazolo[3,4-b]pyrazin-6-yl}-2-oxa-8-azaspiro[4.5]decan-4-amine]",< 1000 nM
5,"C[C@@H]1OCC2(CCN(c3cnc4c(N5CCCc6c(CO)cccc65)n[nH]c4n3)CC2)[C@@H]1N [Compound 431, (1-{6-[(3S,4S)-4-amino-3-methyl-2-oxa-8-azaspiro[4.5]decan-8-yl]-1H-pyrazolo[3,4-b]pyrazin-3-yl}-1,2,3,4-tetrahydroquinolin-5-yl)methanol]",< 1000 nM
6,C[C@@H]1CCN(c2n[nH]c3nc(N4CCC5(CC4)CO[C@@H](C)[C@H]5N)cnc23)c2ccc(-c3ccn[nH]3)nc21 [Compound 432],< 1000 nM
7,"C[C@@H]1OCC2(CCN(c3cnc4c(N5CCCc6c(-c7ncon7)cccc65)n[nH]c4n3)CC2)[C@@H]1N [Compound 433, (3S,4S)-3-methyl-8-{3-[5-(1,2,4-oxadiazol-3-yl)-1,2,3,4-tetrahydroquinolin-1-yl]-1H-pyrazolo[3,4-b]pyrazin-6-yl}-2-oxa-8-azaspiro[4.5]decan-4-amine]",< 1000 nM
8,"CNC(=O)Cc1cccc2c1CCCN2c1n[nH]c2nc(N3CCC4(CC3)CO[C@@H](C)[C@H]4N)cnc12 [Compound 434, 2-(1-{6-[(3S,4S)-4-amino-3-methyl-2-oxa-8-azaspiro[4.5]decan-8-yl]-1H-pyrazolo[3,4-b]pyrazin-3-yl}-1,2,3,4-tetrahydroquinolin-5-yl)-N-methylacetamide hydrochloride]",< 1000 nM
9,C[C@@H]1OCC2(CCN(c3cnc4c(N5CCCc6c(CCO)cccc65)n[nH]c4n3)CC2)[C@@H]1N [Compound 435],< 1000 nM
10,"C[C@@H]1OCC2(CCN(c3cnc4c(N5CCCc6nc(/C=N\O)ccc65)n[nH]c4n3)CC2)[C@@H]1N [Compound 436, (3S,4S)-8-(3-{6-[(1Z)-(hydroxyimino)methyl]-1,2,3,4-tetrahydro-1,5-naphthyridin-1-yl}-1H-pyrazolo[3,4-b]pyrazin-6-yl)-3-methyl-2-oxa-8-azaspiro[4.5]decan-4-amine hydrochloride]",< 1000 nM
11,CC(C)NC(=O)c1ccc2c(n1)[C@H](C)CCN2c1n[nH]c2nc(N3CCC4(CC3)CO[C@@H](C)[C@H]4N)cnc12 [Compound 438],< 1000 nM
12,C[C@@H]1OCC2(CCN(c3cnc4c(N5CCN(CCO)c6cc(C#N)ccc65)n[nH]c4n3)CC2)[C@@H]1N [Compound 439],< 1000 nM
13,C[C@@H]1OCC2(CCN(c3cnc4c(N5CCN(C)c6c(-c7cnn(C)c7)cccc65)n[nH]c4n3)CC2)[C@@H]1N [Compound 440],< 1000 nM
14,C[C@@H]1OCC2(CCN(c3cnc4c(N5CCCc6c(CC#N)cccc65)n[nH]c4n3)CC2)[C@@H]1N [Compound 441],< 1000 nM
15,COCCNC(=O)c1ccc2c(n1)[C@@H](C)CCN2c1n[nH]c2nc(N3CCC4(CC3)CO[C@@H](C)[C@H]4N)cnc12 [Compound 443],< 1000 nM
16,"CO/N=C/c1ccc2c(n1)[C@@H](C)CCN2c1n[nH]c2nc(N3CCC4(CC3)CO[C@@H](C)[C@H]4N)cnc12 [Compound 444, (3S,4S)-8-{3-[(4S)-6-[(1E)-(methoxyimino)methyl]-4-methyl-1,2,3,4-tetrahydro-1,5-naphthyridin-1-yl]-1H-pyrazolo[3,4-b]pyrazin-6-yl}-3-methyl-2-oxa-8-azaspiro[4.5]decan-4-amine hydrochloride]",< 1000 nM
17,C[C@@H]1OCC2(CCN(c3cnc4c(N5CC[C@H](C)c6nc(C(=O)NCc7cccnc7)ccc65)n[nH]c4n3)CC2)[C@@H]1N [Compound 445],< 1000 nM
18,CC(C)NC(=O)c1ccc2c(n1)[C@@H](C)CCN2c1n[nH]c2nc(N3CCC4(CC3)CO[C@@H](C)[C@H]4N)cnc12 [Compound 446],< 1000 nM
19,C[C@@H]1OCC2(CCN(c3cnc4c(N5CC[C@H](C)c6nc(C(=O)NCCO)ccc65)n[nH]c4n3)CC2)[C@@H]1N [Compound 447],< 1000 nM
20,"C[C@@H]1CCN(c2n[nH]c3nc(N4CCC5(CC4)CO[C@@H](C)[C@H]5N)cnc23)c2ccc(-c3nnc[nH]3)nc21 [Compound 452, dihydrochloride]",< 1000 nM
21,"C[C@@H]1OCC2(CCN(c3cnc4c(N5CCN(CC(=O)N(C)C)c6cc(C#N)ccc65)n[nH]c4n3)CC2)[C@@H]1N [Compound 453, 2-(4-{6-[(3S,4S)-4-amino-3-methyl-2-oxa-8-azaspiro[4.5]decan-8-yl]-1H-pyrazolo[3,4-b]pyrazin-3-yl}-7-cyano-1,2,3,4-tetrahydroquinoxalin-1-yl)-N,N-dimethylacetamide]",< 1000 nM
